# According to US20250042876A1, “HERBICIDAL PYRAZOLE PYRIMIDINE COMPOUNDS” (SYNGENTA CROP PROTECTION AG, priority 2021, published 2025):
# Tests used:
# Assay type in all cases: in vivo
# Details in all cases: 250 g/ha, evaluated after 13 days
# [1] = tested on: Ipomoea hederacea (IPOHE); assay: Pre-emergence herbicidal test, glasshouse
# Description: (§1) Seeds of a variety of test species are sown in standard soil in pots Amaranthus palmeri (AMAPA), Amaranthus retoflexus (AMARE), Setaria faberi (SETFA), Echinochloa crus-galli (ECHCG), Ipomoea hederacea (IPOHE)). After cultivation for one day (pre-emergence) or after 8 days cultivation (post-emergence) under controlled conditions in a glasshouse (at 24/16° C., day/night; 14 hours light; 65% humidity), the plants are sprayed with an aqueous spray solution derived from the formulation of the technical active ingredient in acetone/water (50:50) solution containing 0.5% Tween 20 (polyoxyethelyene sorbitan monolaurate, CAS RN 9005-64-5). Compounds are applied at 250 g/ha unless otherwise stated. The test plants are then grown in a glasshouse under controlled conditions in a glasshouse (at 24/16° C., day/night; 14 hours light; 65% humidity) and watered twice daily. After 13 days for pre and post-emergence, the test is evaluated for the percentage damage caused to the plant. The biological activities are shown in the following table on a five-point scale (5=81-100%; 4=61-80%; 3=41-60%; 2=21-40%; 1=0-20%).
# [2] = tested on: Amaranthus retoflexus (AMARE); assay: Pre-emergence herbicidal test, glasshouse
# Description: as §1
# [3] = tested on: Echinochloa crus-galli (ECHCG); assay: Pre-emergence herbicidal test, glasshouse
# Description: as §1
# [4] = tested on: Amaranthus palmeri (AMAPA); assay: Pre-emergence herbicidal test, glasshouse
# Description: as §1
# [5] = tested on: Ipomoea hederacea (IPOHE); assay: Post-emergence herbicidal test, glasshouse
# Description: as §1
# [6] = tested on: Amaranthus retoflexus (AMARE); assay: Post-emergence herbicidal test, glasshouse
# Description: as §1
# [7] = tested on: Echinochloa crus-galli (ECHCG); assay: Post-emergence herbicidal test, glasshouse
# Description: as §1
# [8] = tested on: Amaranthus palmeri (AMAPA); assay: Post-emergence herbicidal test, glasshouse
# Description: as §1
SMILES,IPOHE percentage damage caused to the plant (five-point scale) [1],AMARE percentage damage caused to the plant (five-point scale) [2],ECHCG percentage damage caused to the plant (five-point scale) [3],AMAPA percentage damage caused to the plant (five-point scale) [4],IPOHE percentage damage caused to the plant (five-point scale) [5],AMARE percentage damage caused to the plant (five-point scale) [6],ECHCG percentage damage caused to the plant (five-point scale) [7],AMAPA percentage damage caused to the plant (five-point scale) [8]
"FC(F)(F)c1ccc(-n2nc(C(F)(F)F)c(Cl)c2Cc2ncc(Br)cn2)cc1 [Compound 1.034, 5-bromo-2-[[4-chloro-5-(trifluoromethyl)-2-[4-(trifluoromethyl)phenyl]pyrazol-3-yl]methyl]pyrimidine]",5 (5=81-100%),5 (5=81-100%),5 (5=81-100%),5 (5=81-100%),4 (4=61-80%),4 (4=61-80%),4 (4=61-80%),5 (5=81-100%)
N#Cc1ccc(-n2nc(C(F)F)cc2Cc2ncc(Cl)cn2)cc1 [Compound 1.028],5 (5=81-100%),5 (5=81-100%),5 (5=81-100%),5 (5=81-100%),4 (4=61-80%),5 (5=81-100%),5 (5=81-100%),5 (5=81-100%)
"Fc1ccc(-n2nc(C(F)F)cc2Cc2ncc(Cl)cn2)cc1F [Compound 1.032, 5-chloro-2-[[5-(difluoromethyl)-2-(3,4-difluorophenyl)pyrazol-3-yl]methyl]pyrimidine]",5 (5=81-100%),5 (5=81-100%),5 (5=81-100%),5 (5=81-100%),4 (4=61-80%),5 (5=81-100%),4 (4=61-80%),5 (5=81-100%)
FC(F)(Cl)c1cc(Cc2ncc(Cl)cn2)n(-c2cnc(Cl)c(Cl)c2)n1 [Compound 1.023],5 (5=81-100%),5 (5=81-100%),5 (5=81-100%),5 (5=81-100%),3 (3=41-60%),5 (5=81-100%),4 (4=61-80%),5 (5=81-100%)
CS(=O)(=O)c1ccc(-n2nc(C(F)F)cc2Cc2ncc(Cl)cn2)cc1 [Compound 1.027],5 (5=81-100%),5 (5=81-100%),5 (5=81-100%),5 (5=81-100%),5 (5=81-100%),5 (5=81-100%),5 (5=81-100%),5 (5=81-100%)
Fc1ccc(-n2nc(C(F)(F)Cl)cc2Cc2ncc(Cl)cn2)cc1F [Compound 1.024],5 (5=81-100%),5 (5=81-100%),5 (5=81-100%),5 (5=81-100%),4 (4=61-80%),5 (5=81-100%),5 (5=81-100%),5 (5=81-100%)
FC(F)c1cc(Cc2ncc(Cl)cn2)n(-c2cccc(Cl)c2)n1 [Compound 1.031],5 (5=81-100%),5 (5=81-100%),5 (5=81-100%),5 (5=81-100%),4 (4=61-80%),5 (5=81-100%),4 (4=61-80%),4 (4=61-80%)
Clc1cnc(Cc2cc(I)nn2-c2ccc(Cl)nc2)nc1 [Compound 1.021],5 (5=81-100%),5 (5=81-100%),5 (5=81-100%),5 (5=81-100%),4 (4=61-80%),5 (5=81-100%),5 (5=81-100%),5 (5=81-100%)
N#Cc1cc(Cc2ncc(Cl)cn2)n(-c2ccc(Cl)nc2)n1 [Compound 1.020],5 (5=81-100%),5 (5=81-100%),5 (5=81-100%),5 (5=81-100%),4 (4=61-80%),5 (5=81-100%),5 (5=81-100%),5 (5=81-100%)
FC(F)c1cc(Cc2ncc(Cl)cn2)n(-c2ccc(Cl)cc2)n1 [Compound 1.029],5 (5=81-100%),5 (5=81-100%),5 (5=81-100%),5 (5=81-100%),4 (4=61-80%),5 (5=81-100%),4 (4=61-80%),5 (5=81-100%)
FC(F)(Cl)c1cc(Cc2ncc(Cl)cn2)n(-c2ccc(Cl)nc2)n1 [Compound 1.022],5 (5=81-100%),5 (5=81-100%),5 (5=81-100%),5 (5=81-100%),3 (3=41-60%),5 (5=81-100%),5 (5=81-100%),5 (5=81-100%)
FC(F)(F)c1cc(Cc2ncc(Cl)cn2)n(-c2ccc(Cl)nc2)n1 [Compound 1.009],5 (5=81-100%),5 (5=81-100%),5 (5=81-100%),5 (5=81-100%),4 (4=61-80%),5 (5=81-100%),5 (5=81-100%),5 (5=81-100%)
